Patent US10227358B2, “Hydroxyester derivatives, a process for their preparation and pharmaceutical compositions containing them” (LES LABORATOIRES SERVIER, priority 2015, dated 2019)

Test system: H929 multiple myeloma tumour line
Assay: In vitro cytotoxicity (MTT, Microculture Tetrazolium Assay)
Assay type: cell-based
Settings: Homo sapiens, NCI-H929; H929 cells, 48 hours exposure, cell viability
Description: The cytotoxicity studies were carried out on the H929 multiple myeloma tumour line.
The cells are distributed onto microplates and exposed to the test compounds for 48 hours.
The cell viability is then quantified by a colorimetric assay, the Microculture Tetrazolium Assay (Cancer Res., 1987, 47, 939-942).

Point of comparison: `COc1ccccc1-c1nccc(COc2ccccc2C[C@@H](Oc2ncnc3sc(-c4ccc(F)cc4)c(-c4c(C)c(Cl)c(OCCN5CCN(C)CC5)c(Cl)c4C)c23)C(=O)O)n1` [Preparation 13, (2R)-2-{[5-{3,5-dichloro-2,6-dimethyl-4-[2-(4-methylpiperazin-1-yl)ethoxy]phenyl}-6-(4-fluorophenyl)thieno[2,3-d]pyrimidin-4-yl]oxy}-3-(2-{[2-(2-methoxyphenyl)pyrimidin-4-yl]methoxy}phenyl)propanoic Acid], IC50 0.025 µM. Against it:
- COc1ccccc1-c1nccc(COc2ccccc2C[C@@H](Oc2ncnc3sc(-c4ccc(F)cc4)c(-c4c(C)c(Cl)c(OCCN5CCN(C)CC5)c(Cl)c4C)c23)C(=O)OC(C)OC(=O)N(C)C)n1 (stereo partly drawn) [Example 17, 1-[(dimethylcarbamoyl)oxy]ethyl (2R)-2-{[5-{3,5-dichloro-2,6-dimethyl-4-[2-(4-methylpiperazin-1-yl)ethoxy]phenyl}-6-(4-fluorophenyl)thieno[2,3-d]pyrimidin-4-yl]oxy}-3-(2-{[2-(2-methoxyphenyl)pyrimidin-4-yl]methoxy}phenyl)propanoate] — 28-fold higher, 0.702 µM

Target: Mcl-1 protein (UniProtKB Q07820) (Homo sapiens, UniProt Q07820)
Sequence (Q07820 whole entry): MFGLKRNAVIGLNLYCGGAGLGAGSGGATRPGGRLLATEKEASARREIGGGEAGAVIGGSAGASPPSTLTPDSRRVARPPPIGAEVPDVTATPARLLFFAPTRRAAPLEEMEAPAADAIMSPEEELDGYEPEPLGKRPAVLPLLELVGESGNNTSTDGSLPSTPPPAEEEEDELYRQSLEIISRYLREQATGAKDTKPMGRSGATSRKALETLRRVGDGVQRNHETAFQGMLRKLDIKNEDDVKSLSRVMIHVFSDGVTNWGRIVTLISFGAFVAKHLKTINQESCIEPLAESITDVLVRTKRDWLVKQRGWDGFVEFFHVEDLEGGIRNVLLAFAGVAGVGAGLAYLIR
Assay: Inhibition of Mcl-1 by the fluorescence polarisation technique
Assay type: binding
Settings: fluorescein labelled ligand 1 nM, Mcl-1 protein 5 nM, ~2 hours at room temperature; read-out: IC50 (μM) Mcl-1 FP
Description: The relative binding potency of each compound was determined via Fluorescence Polarisation (FP). The method utilised a Fluorescein labelled ligand (Fluorescein-βAla-Ahx-A-REIGAQLRRMADDLNAQY-OH; mw 2,765) which binds to the Mcl-1 protein (such that Mcl-1 corresponds to the UniProtKB® primary accession number: Q07820) leading to an increased anisotropy measured in milli-polarisation (mP) units using a reader. The addition of a compound which binds competitively to the same site as the ligand will result in a greater proportion of unbound ligand in the system indicated by a decrease in mP units.
An 11 point serial dilution of each compound was prepared in DMSO and 2 μl transferred into flat bottomed, low binding, 384-well plate (final DMSO concentration 5%). 38 μl of buffer (10 mM 4-(2-hydroxyethyl)-1-piperazineethanesulfonic acid [HEPES], 150 mM NaCl, 0.05% Tween 20, pH 7.4), containing the Fluorescein labelled ligand (final concentration 1 nM) and Mcl-1 protein (final concentration 5 nM) was then added.
Assay plates were incubated ˜2 hours at room temperature before FP was measured on a […] Synergy2 reader (Ex. 528 nm, Em. 640 nm, Cut off 510 nm) and mP units calculated. The binding of increasing doses of test compound was expressed as a percentage reduction in mP compared to a window established between ‘5% DMSO only’ and ‘100% inhibition’ controls. 11-point dose response curves were plotted with XL-Fit software using a 4-Parameter Logistic Model (Sigmoidal Dose-Response Model) and the inhibitory concentrations that gave a 50% reduction in mP (IC50) were determined.

Point of comparison: `COC(=O)OC(C)OC(=O)C(Cc1ccccc1OCc1ccnc(-c2ccccc2OC)n1)Oc1ncnc2sc(-c3ccc(F)cc3)c(-c3ccc(OCCN4CCN(C)CC4)c(Cl)c3C)c12` [Example 1, 1-[(methoxycarbonyl)oxy]ethyl (2R)-2-{[(5Sa)-5-{3-chloro-2-methyl-4-[2-(4-methylpiperazin-1-yl)ethoxy]phenyl}-6-(4-fluorophenyl)thieno[2,3-d]pyrimidin-4-yl]oxy}-3-(2-{[2-(2-methoxyphenyl)pyrimidin-4-yl]methoxy}phenyl)propanoate], IC50 0.037 µM. Against it:
- CCCCCCCCOC(=O)OC(C)OC(=O)C(Cc1ccccc1OCc1ccnc(-c2ccccc2OC)n1)Oc1ncnc2sc(-c3ccc(F)cc3)c(-c3ccc(OCCN4CCN(C)CC4)c(Cl)c3C)c12 [Example 6, 1-{[(octyloxy)carbonyl]oxy}ethyl (2R)-2-{[(5Sa)-5-{3-chloro-2-methyl-4-[2-(4-methylpiperazin-1-yl)ethoxy]phenyl}-6-(4-fluorophenyl)thieno[2,3-d]pyrimidin-4-yl]oxy}-3-(2-{[2-(2-methoxyphenyl)pyrimidin-4-yl]methoxy}phenyl)propanoate] — 14-fold higher, 0.51 µM
- COc1ccccc1-c1nccc(COc2ccccc2CC(Oc2ncnc3sc(-c4ccc(F)cc4)c(-c4ccc(OCCN5CCN(C)CC5)c(Cl)c4C)c23)C(=O)OC(C)OC(=O)N(C)C)n1 [Example 7, 1-[(dimethylcarbamoyl)oxy]ethyl (2R)-2-{[(5Sa)-5-{3-chloro-2-methyl-4-[2-(4-methylpiperazin-1-yl)ethoxy]phenyl}-6-(4-fluorophenyl)thieno[2,3-d]pyrimidin-4-yl]oxy}-3-(2-{[2-(2-methoxyphenyl)pyrimidin-4-yl]methoxy}phenyl)propanoate] — 12-fold higher, 0.438 µM
- CCN(CC)C(=O)OC(C)OC(=O)C(Cc1ccccc1OCc1ccnc(-c2ccccc2OC)n1)Oc1ncnc2sc(-c3ccc(F)cc3)c(-c3ccc(OCCN4CCN(C)CC4)c(Cl)c3C)c12 [Example 8, 1-[(diethylcarbamoyl)oxy]ethyl (2R)-2-{[(5Sa)-5-{3-chloro-2-methyl-4-[2-(4-methylpiperazin-1-yl)ethoxy]phenyl}-6-(4-fluorophenyl)thieno[2,3-d]pyrimidin-4-yl]oxy}-3-(2-{[2-(2-methoxyphenyl)pyrimidin-4-yl]methoxy}phenyl)propanoate] — 38-fold higher, 1.41 µM
- COCCNC(=O)OC(C)OC(=O)C(Cc1ccccc1OCc1ccnc(-c2ccccc2OC)n1)Oc1ncnc2sc(-c3ccc(F)cc3)c(-c3ccc(OCCN4CCN(C)CC4)c(Cl)c3C)c12 [Example 10, 1-{[(2-methoxyethyl)carbamoyl]oxy}ethyl (2R)-2-{[(5Sa)-5-{3-chloro-2-methyl-4-[2-(4-methylpiperazin-1-yl)ethoxy]phenyl}-6-(4-fluorophenyl)thieno[2,3-d]pyrimidin-4-yl]oxy}-3-(2-{[2-(2-methoxyphenyl)pyrimidin-4-yl]methoxy}phenyl) propanoate] — 4-fold higher, 0.147 µM
- COc1ccccc1-c1nccc(COc2ccccc2C[C@@H](Oc2ncnc3sc(-c4ccc(F)cc4)c(-c4c(C)c(Cl)c(OCCN5CCN(C)CC5)c(Cl)c4C)c23)C(=O)O)n1 [Preparation 13, (2R)-2-{[5-{3,5-dichloro-2,6-dimethyl-4-[2-(4-methylpiperazin-1-yl)ethoxy]phenyl}-6-(4-fluorophenyl)thieno[2,3-d]pyrimidin-4-yl]oxy}-3-(2-{[2-(2-methoxyphenyl)pyrimidin-4-yl]methoxy}phenyl)propanoic Acid] — 20-fold lower, 0.00181 µM
- COC(=O)CN(C)C(=O)OC(C)OC(=O)C(Cc1ccccc1OCc1ccnc(-c2ccccc2OC)n1)Oc1ncnc2sc(-c3ccc(F)cc3)c(-c3ccc(OCCN4CCN(C)CC4)c(Cl)c3C)c12 [Example 12, 1-{[(2-methoxy-2-oxoethyl)(methyl)carbamoyl]oxy}ethyl (2R)-2-{[(5Sa)-5-{3-chloro-2-methyl-4-[2-(4-methylpiperazin-1-yl)ethoxy]phenyl}-6-(4-fluorophenyl)thieno[2,3-d]pyrimidin-4-yl]oxy}-3-(2-{[2-(2-methoxyphenyl)pyrimidin-4-yl]methoxy}phenyl)propanoate] — 8.6-fold higher, 0.318 µM
- COc1ccccc1-c1nccc(COc2ccccc2CC(Oc2ncnc3sc(-c4ccc(F)cc4)c(-c4ccc(OCCN5CCN(C)CC5)c(Cl)c4C)c23)C(=O)OC(C)OC(=O)OC(C)(C)C)n1 [Example 4, 1-[(tert-butoxycarbonyl)oxy]ethyl (2R)-2-{[(5Sa)-5-{3-chloro-2-methyl-4-[2-(4-methylpiperazin-1-yl)ethoxy]phenyl}-6-(4-fluorophenyl)thieno[2,3-d]pyrimidin-4-yl]oxy}-3-(2-{[2-(2-methoxyphenyl)pyrimidin-4-yl]methoxy}phenyl)propanoate] — 26-fold higher, 0.959 µM
- COc1ccccc1-c1nccc(COc2ccccc2CC(Oc2ncnc3sc(-c4ccc(F)cc4)c(-c4ccc(OCCN5CCN(C)CC5)c(Cl)c4C)c23)C(=O)OCOP(=O)(O)O)n1 [Example 13, (phosphonooxy)methyl (2R)-2-{[(5Sa)-5-{3-chloro-2-methyl-4-[2-(4-methylpiperazin-1-yl)ethoxy]phenyl}-6-(4-fluorophenyl)thieno[2,3-d]pyrimidin-4-yl]oxy}-3-(2-{[2-(2-methoxyphenyl)pyrimidin-4-yl]methoxy}phenyl)propanoate] — 12-fold lower, 0.0032 µM
- CCOC(=O)OC(C)OC(=O)C(Cc1ccccc1OCc1ccnc(-c2ccccc2OC)n1)Oc1ncnc2sc(-c3ccc(F)cc3)c(-c3ccc(OCCN4CCN(C)CC4)c(Cl)c3C)c12 [Example 2, 1-[(ethoxycarbonyl)oxy]ethyl (2R)-2-{[(5Sa)-5-{3-chloro-2-methyl-4-[2-(4-methylpiperazin-1-yl)ethoxy]phenyl}-6-(4-fluorophenyl)thieno[2,3-d]pyrimidin-4-yl]oxy}-3-(2-{[2-(2-methoxyphenyl)pyrimidin-4-yl]methoxy}phenyl)propanoate] — 9.8-fold higher, 0.361 µM
- COc1ccccc1-c1nccc(COc2ccccc2CC(Oc2ncnc3sc(-c4ccc(F)cc4)c(-c4ccc(OCCN5CCN(C)CC5)c(Cl)c4C)c23)C(=O)OC(C)OC(=O)OC2CCCC2)n1 [Example 5, 1-{[(cyclopentyloxy)carbonyl]oxy}ethyl (2R)-2-{[(5Sa)-5-{3-chloro-2-methyl-4-[2-(4-methylpiperazin-1-yl)ethoxy]phenyl}-6-(4-fluorophenyl)thieno[2,3-d]pyrimidin-4-yl]oxy}-3-(2-{[2-(2-methoxyphenyl)pyrimidin-4-yl]methoxy}phenyl)propanoate] — 10-fold higher, 0.37 µM
- COc1ccccc1-c1nccc(COc2ccccc2CC(Oc2ncnc3sc(-c4ccc(F)cc4)c(-c4ccc(OCCN5CCN(C)CC5)c(Cl)c4C)c23)C(=O)OC(C)OC(=O)N2CCOCC2)n1 [Example 9, 1-{[(2R)-2-{[(5Sa)-5-{3-chloro-2-methyl-4-[2-(4-methylpiperazin-1-yl)ethoxy]phenyl}-6-(4-fluorophenyl)thieno[2,3-d]pyrimidin-4-yl]oxy}-3-(2-{[2-(2-methoxyphenyl)pyrimidin-4-yl]methoxy}phenyl)propanoyl]oxy}ethyl morpholine-4-carboxylate] — 14-fold higher, 0.52 µM
- COc1ccccc1-c1nccc(COc2ccccc2C[C@@H](Oc2ncnc3sc(-c4ccc(F)cc4)c(-c4c(C)c(Cl)c(OCCN5CCN(C)CC5)c(Cl)c4C)c23)C(=O)OC(C)OC(=O)N(C)C)n1 (stereo partly drawn) [Example 17, 1-[(dimethylcarbamoyl)oxy]ethyl (2R)-2-{[5-{3,5-dichloro-2,6-dimethyl-4-[2-(4-methylpiperazin-1-yl)ethoxy]phenyl}-6-(4-fluorophenyl)thieno[2,3-d]pyrimidin-4-yl]oxy}-3-(2-{[2-(2-methoxyphenyl)pyrimidin-4-yl]methoxy}phenyl)propanoate] — 42-fold higher, 1.54 µM
- COCCN(CCOC)C(=O)OC(C)OC(=O)C(Cc1ccccc1OCc1ccnc(-c2ccccc2OC)n1)Oc1ncnc2sc(-c3ccc(F)cc3)c(-c3ccc(OCCN4CCN(C)CC4)c(Cl)c3C)c12 [Example 11, 1-{[bis(2-methoxyethyl)carbamoyl]oxy}ethyl (2R)-2-{[(5Sa)-5-{3-chloro-2-methyl-4-[2-(4-methylpiperazin-1-yl)ethoxy]phenyl}-6-(4-fluorophenyl)thieno[2,3-d]pyrimidin-4-yl]oxy}-3-(2-{[2-(2-methoxyphenyl)pyrimidin-4-yl]methoxy}phenyl)propanoate] — 15-fold higher, 0.551 µM
- COc1ccccc1-c1nccc(COc2ccccc2CC(Oc2ncnc3sc(-c4ccc(F)cc4)c(-c4ccc(OCCN5CCN(C)CC5)c(Cl)c4C)c23)C(=O)OC(C)OC(=O)OC(C)C)n1 [Example 3, 1-{[(propan-2-yloxy)carbonyl]oxy}ethyl (2R)-2-{[(5Sa)-5-{3-chloro-2-methyl-4-[2-(4-methylpiperazin-1-yl)ethoxy]phenyl}-6-(4-fluorophenyl)thieno[2,3-d]pyrimidin-4-yl]oxy}-3-(2-{[2-(2-methoxyphenyl)pyrimidin-4-yl]methoxy}phenyl)propanoate] — 7.9-fold higher, 0.292 µM
